Experimental data from US11932654B2, “Nimbolide analogs as anti-cancer agents and preparation thereof” (priority 2018, dated 2024).

How the values were obtained:
caspase-8 = assay: Caspase assay activity, caspase-8, Panc-1 cells; type: cell-based; conditions: fluorimetric assay, increasing concentrations
Protocol: (§1) Caspase assay activity: Caspase-3, caspase-8 and caspase-9 protease activities were determined using a commercial fluorescence assay kit according to the manufacturer's instructions, Briefly, pancreatic cancer cells were treated with different concentrations of IM-1372-Kn-13 for 24 h were re-suspended in 50 μL of chilled cell lysis buffer; cells were then incubated on ice for 10 min and centrifuged for 1 min in a micro-centrifuge (10,000 g). Then supernatants were transferred (cytosolic extract) to a fresh tube and protein concentration was assayed. Next, diluted 100 μg protein was added to 50 μL cell lysis buffer for each assay. Subsequently, 50 μL of 2× reaction buffer and 5 μL of the 4 mM Ac-DEVD AMC (caspase-3)/Ac-VETD-AMC (caspase-8)/[…] were added and incubated at 37° C. for 2 h (samples read at […] in a microtiter plate reader).

p27 = assay: Western blotting analysis on Panc-1 cell line, p27; type: cell-based; conditions: panc-1 cells, various concentrations, 24 h, Western blot
Protocol: (§2) Western blotting analysis of IM-1372-Kn-13 on Panc-1 cell line: The cells were lysed in RIPA buffer (50 mM-tris (PH-7.4), 150 Min-Nacl, 1%-NP-40, 0.1%-SDS, 0.5%-Sodium-deoxycholate, 1 mM EDTA, 5 mM NaF, 5 mM Na—O-vandate, 1 mM PMSF, Protease inhibitor cocktail. The lysates were cleared by centrifugation at […] and concentration of protein was estimated by bradford assay. For Western blot analysis, equivalent amount of protein was resolved in SDS-PAGE and then transferred to polyvinylidene difluoride ([…]) membrane. Ti avoid non specific binding of antibodies, the membranes were blocked using 3% BSA in TBS with 0.5% Tween (TBST) for 1 h at room temperature. The membranes were then incubated in primary antibody overnight at 4° C. After removing excess primary antibody bound to membranes, blots were incubated with secondary anti body. Then the signal emitted was captured using chemiluminescence substrate.

p21 = assay: Western blotting analysis on Panc-1 cell line, p21; type: cell-based; conditions: panc-1 cells, various concentrations, 24 h, Western blot
Protocol: as §2

[1] = system: MCF-7 breast cancer cell line; assay: In vitro anticancer activity, SRB assay, MCF-7; type: cell-based; conditions: Homo sapiens, MCF7, 48 h, NA = Not Active
Protocol: Cell culture: Human lung adenocarcinoma cell line (A549 cell line), pancreatic cancer cell line (Panc-1, Pan-02), prostate cancer cell line (DU145, PC3), Brest cancer cell line (MCF-7) was grown in DIEM (Dulbecco's modifications of eagle's medium with L-glutamine & 4.5 g/L glucose) supplemented with fetal bovine serum in a humidified atmosphere of a 5% CO2 at 37° C.
In vitro anticancer activity: Cells were harvested from exponential phase cultures by trypsinization, counted and plated in 96-well plate. Optimal seeding densities for different cell lines in each plate were 5000 cells per well. After 24 h cells were treated with \ the newly synthesized compound at a dose range of 0.1-100 μm final concentration. Thereafter, cells were allowed to grow for 48 h before determination of cell survival by the SRB assay. Then the cells were fixed with 10% cold trichloroacetic acid for 1 h at 4° C. After two washes with deionized water, fixed cells were stained with 50 μL of SRB solution (1% in acetic acid) for 30 min and subsequently washed twice with 1% acetic acid to remove unbound stain. The plates were left to dry at room temperature and bound stain was solubilized with 100 μL of 10 mM buffered Tris base for reading the […] at 540 nm.

caspase-3 = assay: Caspase assay activity, caspase-3, Panc-1 cells; type: cell-based; conditions: fluorimetric assay, increasing concentrations
Protocol: as §1

[2] = system: Pan-02 cells xenograft tumors; assay: Histopathological examination of tumors and organs of xenograft mice; type: in vivo, nude mice
Protocol: Establishment of Pancreatic cancer xenograft model: To establish tumor in mice, Pan-02 cells (7×10^6) were suspended in 1:1 RPMI medium mixed with matrigel and subcutaneously implanted on right flank of the each mice. The injection sites were examined daily for the appearance of tumors. On 10th day these animals were randomized and divided into 3 groups (6 mice in each group). Group I served as control group received 20% ethanol three times in a week. Test group animals in Group II and III received intratumoral injection of IM-1372-Kn-13 at 10 mg and 25 mg/kg body weight respectively three times in a week. All groups received 5 repeated doses in 12 days. Mice were weighed and tumor volumes were measured 3 times a week by Vernier caliper. Tumor volume in individual mice was calculated by the following formula. 0.5×L (W)^2, Where L is length, W is width of the tumor. The control group animals were euthanized when tumor volume is reached heavier to animal. One-week after completion of treatment period, the animals were sacrificed, and tumors were excised, fixed, and embedded in paraffin. At the end of treatment, blood samples were collected to perform clinical biochemistry.

[3] = Biochemical analysis in acute toxicity studies; type: in vivo, mice
Protocol: Biochemical analysis: In acute toxicity experiment, blood samples were collected from all the animals 1 week after the last dose and mice were sacrificed by cervical decapitation. The obtained serum was analyzed in clinical chemistry for the assessment of liver function tests (LFT), activity of serum alkaline phosphatase (ALP), alanine aminotransferase (ALT), aspartate aminotransferase (AST), kidney function tests (RFT) (serum urea and creatinine). The same tests were performed for serum samples collected from three groups of tumor xenograft mice used for determining in vivo activity of test compound against pancreatic cancer. The measurement of these biochemical parameters was done in Clinical Biochemical analyzer (Tulip coralab 3000™).

[4] = single IP dose 5 mg/kg body weight
[5] = single IP dose 10 mg/kg body weight
[6] = single IP dose 25 mg/kg body weight
[7] = single IP dose 50 mg/kg body weight

COC(=O)C[C@H]1[C@]2(C)C3=C(C)[C@H](C4=CC5OC4C(C(=O)OC)=C5C(=O)OC)C[C@@H]3O[C@@H]2[C@@H]2OC(=O)[C@]3(C)C=CC(=O)[C@@]1(C)C23 (stereo partly drawn) [A4]
activity of caspase-8 (caspase-8): increased significantly in a dose-dependent manner | expression of p27 protein (p27): reduced | expression of p21 protein (p21): reduced | IC50 [1]: 12.5 µM | activity of caspase-3 (caspase-3): increased significantly in a dose-dependent manner | animals showing liver metastasis ([2]; printed 'group I' (control group: 50%)): 10 % of animals | metastatic invasion in liver, kidney and spleen ([2]; printed 'group II'): no metastatic invasion was found | liver metastasis in treated animals ([2]; treated xenograft animals vs control group): no liver metastasis | effect on the other tissues of xenograft mice ([2]; xenograft mice, intratumoral): did not show any effect | ALT [3, 4]: 48 U/L | AST [3, 4]: 63 U/L | BUN [3, 4]: 18 mg/dL | Cholesterol [3, 4]: 175 mg/dL | Creatinine [3, 4]: 0.4 mg/dL | Glucose [3, 4]: 101 mg/dL | ALT [3, 5]: 66 U/L | AST [3, 5]: 66 U/L | BUN [3, 5]: 21 mg/dL | Cholesterol [3, 5]: 175 mg/dL | Creatinine [3, 5]: 0.4 mg/dL | Glucose [3, 5]: 100 mg/dL | ALT [3, 6]: 67 U/L | AST [3, 6]: 74.5 U/L | BUN [3, 6]: 24.5 mg/dL | Cholesterol [3, 6]: 163.5 mg/dL | Creatinine [3, 6]: 0.35 mg/dL | Glucose [3, 6]: 96 mg/dL | ALT [3, 7]: 95 U/L | AST [3, 7]: 128 U/L | BUN [3, 7]: 29 mg/dL | Cholesterol [3, 7]: 178 mg/dL | Creatinine [3, 7]: 0.9 mg/dL | Glucose [3, 7]: 102 mg/dL
